According to patent US7629377B2, “Substituted naphthyl indole derivatives as inhibitors of plasminogen activator inhibitor type-1 (PAI-1)” (Wyeth, priority 2008, dated 2009):

Key:
human PAI-1 = human PAI-1 (Homo sapiens, UniProt P05121); experiment: Assay for Determining IC50 of Inhibition of PAI-1 (Antibody Assay); assay type: biochemical; settings: for IC50: Antibody Assay (footnote a), active PAI-1 bound to tPA-coated plate, pH 7.5; for inhibition at 25 µM: 25 μM test compound, footnote a (Antibody Assay)
Protocol: Assay for Determining IC50 of Inhibition of PAI-1
This assay is based upon the non-SDS dissociable interaction between tPA and active PAI-1. Assay plates are initially coated with human tPA (10 μg/ml). Test compounds are dissolved in DMSO at 10 mM, then diluted with physiologic buffer (pH 7.5) to a final concentration of 1-50 μM. Test compounds are incubated with human PAI-1 (50 ng/ml) for 15 minutes at room temperature. The tPA-coated plate is washed with a solution of 0.05% Tween 20 and 0.1% BSA, then the plate is blocked with a solution of 3% BSA. An aliquot of the test compound/PAI-1 solution is then added to the tPA-coated plate, incubated at room temperature for 1 hour, and washed. Active PAI-1 bound to the plate is assessed by adding an aliquot of a 1:1000 dilution of the 33B8 monoclonal antibody against human PAI-1, and incubating the plate at room temperature for 1 hour (Molecular Innovations, Royal Oak, Mich. The plate is again washed, and a solution of goat anti-mouse IgG-alkaline phosphatase conjugate is added at a 1:50,000 dilution in goat serum. The plate is incubated 30 minutes at room temperature, washed, and a solution of alkaline phosphatase substrate is added. The plate is incubated 45 minutes at room temperature, and color development is determined at OD405 nm. The quantitation of active PAI-1 bound to tPA at varying concentrations of test compound is used to determine the IC50. Results are analyzed using a logarithmic best-fit equation. The assay sensitivity is 5 ng/ml of human PAI-1 as determined from a standard curve ranging from 0-100 ng/ml.

[1] = biological target: T1, recombinant human plasminogen activator inhibitor-1 (PAI-1) (Homo sapiens, UniProt P05121); experiment: modification of the Primary Screen for PAI-1 Inhibition; assay type: biochemical; settings: modification of the Primary Screen (footnote b); residual tPA activity, Spectrozyme-tPA
T1 construct: purchased Molecular Innovations, Royal Oak, Mich
Protocol: Primary Screen for the PAI-1 Inhibition
Test compounds are dissolved in DMSO at a final concentration of 10 mM, then diluted […] in physiologic buffer. The inhibitory assay is initiated by the addition of test compound (1-100 μM final concentration, maximum DMSO concentration of 0.2%) in a pH 6.6 buffer containing 140 nM recombinant human plasminogen activator inhibitor-1 (PAI-1; Molecular Innovations, Royal Oak, Mich. Following a 1 hour incubation at room temperature, 70 nM of recombinant human tissue plasminogen activator (tPA) is added, and the combination of test compound, PAI-1 and tPA is incubated for an additional 30 minutes. Following the second incubation, Spectrozyme-tPA (American Diagnostica, Greenwich, Conn.), a chromogenic substrate for tPA, is added and absorbance read at 405 nm at 0 and 60 minutes. Relative PAI-1 inhibition is equal to the residual tPA activity in the presence of test compound and PAI-1. Control treatments include the complete inhibition of tPA by PAI-1 at the molar ratio employed (2:1), and the absence of any effect of the test compound on tPA alone.

Sequence of human PAI-1 (P05121 24-402): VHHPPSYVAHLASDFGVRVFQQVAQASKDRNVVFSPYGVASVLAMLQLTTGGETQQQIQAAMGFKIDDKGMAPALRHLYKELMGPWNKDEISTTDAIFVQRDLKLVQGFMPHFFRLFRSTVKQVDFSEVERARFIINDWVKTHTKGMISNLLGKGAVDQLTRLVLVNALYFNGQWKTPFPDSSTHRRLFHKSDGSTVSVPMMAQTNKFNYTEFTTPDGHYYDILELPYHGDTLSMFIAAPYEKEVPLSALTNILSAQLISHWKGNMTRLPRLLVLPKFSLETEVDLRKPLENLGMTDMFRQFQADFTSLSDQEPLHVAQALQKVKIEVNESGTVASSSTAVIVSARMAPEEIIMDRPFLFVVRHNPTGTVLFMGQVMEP
T1 sequence (P05121 24-402): as above

| Structure (SMILES) | IC50 (human PAI-1) [µM] | IC50 [1] [µM] | melting point | inhibition at 25 µM (human PAI-1) [%] |
| --- | --- | --- | --- | --- |
| CCCCCc1c(-c2ccc3cc(OCc4nnn[nH]4)ccc3c2)n(C)c2ccccc12 [Example 3, 1-Methyl-3-pentyl-2-[6-(1H-tetraazol-5-ylmethoxy)-2-naphthyl]-1H-indole] | 16.2 |  | 120 to 122 °C |  |
| CCCCCc1c(-c2ccc3c(Br)c(OCc4nnn[nH]4)ccc3c2)n(C)c2ccccc12 [Example 4, 2-[5-Bromo-6-(1H-tetraazol-5-ylmethoxy)-2-naphthyl]-1-methyl-3-pentyl-1H-indole] |  | 17.4 | > 125 °C (dec.) |  |
| CCCCCc1c(-c2ccc3cc(OCc4nnn[nH]4)ccc3c2)n(C(C)=O)c2ccccc12 [Example 5, 1-Acetyl-3-pentyl-2-[6-(1H-tetraazol-5-ylmethoxy)-2-naphthyl]-1H-indole] |  | 9.2 | > 95 °C (dec.) |  |
| CCCCCc1c(-c2ccc3c(Br)c(OCc4nnn[nH]4)ccc3c2)n(C(C)=O)c2ccccc12 [Example 6, 1-Acetyl-2-[5-bromo-6-(1H-tetraazol-5-ylmethoxy)-2-naphthyl]-3-pentyl-1H-indole] |  |  | > 79 °C (dec.) | 16 |
| CCCCCc1c(-c2ccc3c(Br)c(OCc4nnn[nH]4)ccc3c2)n(Cc2ccccc2C(F)(F)F)c2ccccc12 [Example 8, 2-[5-Bromo-6-(1H-tetraazol-5-ylmethoxy)-2-naphthyl]-3-pentyl-1-[2-(trifluoromethyl)benzyl]-1H-indole] |  |  | > 85 °C (dec.) | 57 |
| CCCCCc1c(-c2ccc3c(Br)c(OCc4nnn[nH]4)ccc3c2)n(Cc2ccc(C(C)(C)C)cc2)c2ccccc12 [Example 10, 2-[5-Bromo-6-(1H-tetraazol-5-ylmethoxy)-2-naphthyl]-1-(4-tert-butylbenzyl)-3-pentyl-1H-indole] |  |  | > 90 °C (dec.) | 60 |
| CCCCCc1c(-c2ccc3c(Br)c(OCC(=O)O)ccc3c2)n(C)c2ccccc12 [Example 11, {[1-Bromo-6-(1-methyl-3-pentyl-1H-indol-2-yl)-2-naphthyl]oxy}acetic acid] | 10.7 |  | > 73 °C (dec.) |  |

More lines, now with the values ahead:

| IC50 (human PAI-1) [µM] | IC50 [1] [µM] | melting point | inhibition at 25 µM (human PAI-1) [%] | Structure (SMILES) |
| --- | --- | --- | --- | --- |
| 9.85 |  |  |  | CCCCCc1c(-c2ccc3cc(OCc4nnn[nH]4)ccc3c2)n(Cc2ccccc2)c2ccccc12 [Example 1, 1-Benzyl-3-pentyl-2-[6-(1H-tetraazol-5-ylmethoxy)-2-naphthyl]-1H-indole] |
|  | 8.8 | > 70 °C (dec.) |  | CCCCCc1c(-c2ccc3c(Br)c(OCc4nnn[nH]4)ccc3c2)n(Cc2ccccc2)c2ccccc12 [Example 2, 1-Benzyl-2-[5-bromo-6-(1H-tetraazol-5-ylmethoxy)-2-naphthyl]-3-pentyl-1H-indole] |
| 5.22 |  | > 100 °C (dec.) |  | CCCCCc1c(-c2ccc3cc(OCc4nnn[nH]4)ccc3c2)n(Cc2ccccc2C(F)(F)F)c2ccccc12 [Example 7, 3-Pentyl-2-[6-(1H-tetraazol-5-ylmethoxy)-2-naphthyl]-1-[2-(trifluoromethyl)benzyl]-1H-indole] |
| 24.9 |  | > 95 °C (dec.) |  | CCCCCc1c(-c2ccc3cc(OCc4nnn[nH]4)ccc3c2)n(Cc2ccc(C(C)(C)C)cc2)c2ccccc12 [Example 9, 1-(4-tert-Butylbenzyl)-3-pentyl-2-[6-(1H-tetraazol-5-ylmethoxy)-2-naphthyl]-1H-indole] |
